Results on 14 compounds are retold here after patent US5025016A, “Pyrimidine-thioalkyl pyridine derivatives, medicaments containing these compounds, and method of treatment” (Ludwig Heumann & Co. GmbH, priority 1983, dated 1991).

Where a name gives a salt, the structure may show the parent alone.

In one assay the test system is tracheal secretion of phenol red. Kind of assay: Secretion-stimulating activity: tracheal secretion of phenol red after oral administration to female mice. Format: in vivo. Particulars: Mus musculus, calculated from the regression curves. Here is the method:
Bronchosecretolytic compounds promote the tracheal secretion of phenol red (Chronic Bronchitis Research Group, Chinese Medical Journal 3: 259, 1977). The increase in the tracheal secretion of phenol red is a measure of bronchosecretolytic activity. This activity of the test substances was investigated after oral administration to female mice. The ED50 -values shown in Table 1 were calculated from the regression curves.
For the compound `CC[n+]1cccc(CSc2ncccn2)c1` [Example 13, 2-(3-methylthio-1-ethylpyridinium)-pyrimidine iodide], the ED50 was 70 mg/kg.

Consider `Cc1ccnc([S+]([O-])Cc2cccnc2)n1` (stereo not shown) [Example 11, 4-methyl-2-(pyridyl-3-methylsulfinyl)-pyrimidine oxalate], for which the ED50 is 10 mg/kg.

For `Nc1cc(O)nc(SCc2cccnc2)n1` [Example 3, 4-amino-6-hydroxy-2-(pyridyl-3-methylthio)-pyrimidine], the ED50 was 2 mg/kg.

Turning to `[O-][S+](Cc1ccncc1)c1ncccn1` (stereo not shown) [Example 10, 2-(pyridyl-4-methylsulfinyl)-pyrimidine hydrochloride], the ED50 is 100 mg/kg.

As for `Nc1ccnc(SCc2cccnc2)n1` [Example 1, 4-amino-2-(pyridyl-3-methylthio)-pyrimidine], the ED50 is 5 mg/kg.

For the compound `CC(Sc1ncccn1)c1cccnc1` (stereo not shown) [Example 7, 2-(pyridyl-3-(2-ethylthio)-pyrimidine oxalate], the ED50 was 15 mg/kg.

In the case of `Nc1cc(O)nc(SCc2ccc(Cl)nc2)n1` [Example 6, 4-amino-6-hydroxy-2-(pyridyl-6-chloro-3-methylthio)-pyrimidine], the median effective dose (ED50) is 2 mg/kg.

Take `[O-][S+](Cc1cccnc1)c1ncccn1` (stereo not shown) [Example 9, 2-(pyridyl-3-methylsulfinyl)-pyrimidine hydrochloride]: the ED50 is 2 mg/kg.

With `Cc1ccc(C(C)Sc2ncccn2)cn1` (stereo not shown) [Example 8], the ED50 was over 100 mg/kg.

Regarding `Oc1ccnc(SCc2cccnc2)n1` [Example 2, 4-hydroxy-2-(pyridyl-3-methylthio)-pyrimidine], the ED50 is 100 mg/kg.

As for `Nc1c(Br)cc(Br)cc1CN[C@H]1CC[C@H](O)CC1` [Ambroxol, trans-4-(2-amino-3,5-dibromobenzyl)-aminocyclohexanol, reference compound], the ED50 was 250 mg/kg.

On to `C[n+]1cccc(CSc2ncccn2)c1` [Example 12, 2-(3-methylthio-1-methylpyridinium)-pyrimidine iodide], for which the ED50 is 1 mg/kg.

Regarding `Cc1cc(O)nc(SCc2cccnc2)n1` [Example 5, 4-hydroxy-6-methyl-2-(pyridyl-3-methylthio)-pyrimidine], the ED50 is 15 mg/kg.

Take `Nc1cc(N)nc(SCc2cccnc2)n1` [Example 4, 4,6-diamino-2-(pyridyl-3-methylthio)-pyrimidine succinate]: the ED50 was over 100 mg/kg.

In the next assay the test system is carrageenin-induced inflammation (oedema formation). Kind of assay: Antiphlogistic activity: carrageenin-oedema test, right-hand rear paw. The class given is in vivo. The note with it: 100 mg/kg i.g., 30 minutes before injection of the carrageenin; male rats. The procedure:
The antiphlogistic properties of the compounds according to the invention were determined by the carrageenin-oedema test in male rats (average weight 130-160 g, SIV 50, Messrs Ivanovas, Kisslegg). The inhibition of the carrageenin-induced inflammation (oedema formation) was measured on the right-hand rear paw. The test substances were administered intragastrally by esophagus probe 30 minutes before injection of the carrageenin. The results are shown in Table II (Higgs et.al., European Journal of Pharmacology 66, 81-86 (1980)).
Take `Oc1ccnc(SCc2cccnc2)n1` [Example 2, 4-hydroxy-2-(pyridyl-3-methylthio)-pyrimidine]: the “Inhibition in % (carrageenin-induced oedema formation)” value was 45%.

In the case of `Nc1cc(N)nc(SCc2cccnc2)n1` [Example 4, 4,6-diamino-2-(pyridyl-3-methylthio)-pyrimidine succinate], the “Inhibition in % (carrageenin-induced oedema formation)” value came to 30%.

What is called ED50 is the midpoint of the dose-response relation.
